Earlier results on 2 molecules are cited in PMC9010257 (Clinical and Translational Science, 2022).

The subject of this series is TNAP.

In the case of `c1ccc([C@H]2CN3CCSC3=N2)cc1` [levamisole], the inhibitory activity entry was “weak inhibitory activity” and the “specificity for TNAP” value is on record as “not specific for TNAP”.
Take `Cn1c(=O)c2[nH]cnc2n(C)c1=O` [theophylline]: the inhibitory activity entry was “weak inhibitory activity” and the “specificity for TNAP” value is listed as “not specific for TNAP”.
